Experimental findings from ChEMBL document CHEMBL1154828, “Dimeric guaianolides and sesquiterpenoids from Artemisia anomala” (J Nat Prod, 2010) are described below.

Active and inactive are the calls of the source. The calls are words filed in the database; no cut-off is given here.

Test [1] concerns the target T1, Prostaglandin G/H synthase 2 (Homo sapiens) (UniProt P35354).
T1 sequence (whole entry): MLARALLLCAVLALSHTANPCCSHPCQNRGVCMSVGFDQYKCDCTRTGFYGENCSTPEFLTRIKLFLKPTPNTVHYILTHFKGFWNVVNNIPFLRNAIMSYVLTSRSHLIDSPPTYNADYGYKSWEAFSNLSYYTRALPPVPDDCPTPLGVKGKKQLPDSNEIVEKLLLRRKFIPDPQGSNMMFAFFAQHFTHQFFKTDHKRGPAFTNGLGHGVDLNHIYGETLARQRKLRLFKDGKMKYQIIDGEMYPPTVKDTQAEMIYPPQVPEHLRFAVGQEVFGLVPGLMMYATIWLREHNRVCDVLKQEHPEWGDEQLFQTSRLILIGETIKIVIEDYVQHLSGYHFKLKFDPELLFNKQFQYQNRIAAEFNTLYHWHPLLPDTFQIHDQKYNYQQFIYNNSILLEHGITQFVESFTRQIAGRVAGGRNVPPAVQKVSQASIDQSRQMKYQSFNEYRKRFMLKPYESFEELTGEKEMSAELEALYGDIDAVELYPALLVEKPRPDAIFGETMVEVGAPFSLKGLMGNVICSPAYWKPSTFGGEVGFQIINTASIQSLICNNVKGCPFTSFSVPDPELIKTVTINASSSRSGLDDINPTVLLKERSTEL
The experiment in a line: Inhibition of COX2 at 50 uM.

Test [2] relates to A2780. The experiment in a line: Cytotoxicity activity against human A2780 cells after 72 hrs by MTT assay. Format: functional, cell-based. The conditions noted are these: A2780, 72 h.
Test [3] concerns A549. Put plainly: Cytotoxicity activity against human A549 cells after 72 hrs by MTT assay. The format is functional, cell-based. A general note: Formazan colour is commonly taken as a measure of viable cells.
Test [4] relates to BGC-823. Put plainly: Cytotoxicity activity against human BGC823 cells after 72 hrs by MTT assay. The format is functional, cell-based. The conditions noted are these: BGC-823, 72 h.
Test [5] deals with Bel-7402. The experiment in a line: Cytotoxicity activity against human Bel7402 cells after 72 hrs by MTT assay. The conditions noted are these: Bel-7402, 72 h. Format: functional, cell-based.
The subject of test [6] is HCT-8. The experiment in a line: Cytotoxicity activity against human HCT8 cells after 72 hrs by MTT assay. The following applies: HCT-8, 72 h. Format: functional, cell-based.

`C=C(C(=O)O)C(CCC(C)=O)CC1=C(C)C(=O)CC1=O` (stereo not drawn) showed an inhibition in test [1] of 98.2%.

In test [1], `C=C1C(=O)O[C@H]2[C@H]1CC[C@](C)(O)[C@]13O[C@H]1[C@H](Cl)[C@](C)(O)[C@H]23` showed an inhibition of 98.4%.

Take `C=C1C(=O)O[C@@H]2[C@@H]3C4(C=C[C@@]3(C)C3(C4)C(=O)O[C@@H]4[C@H]5C(C)=CC(=O)C5=C(C)C[C@H](O)[C@H]43)[C@@](C)(OC(C)=O)CC[C@@H]12` (stereo partly drawn) [ARTANOMALIDE D]: the IC50 in test [2] was found to be 1800 nM; in test [4], 8500 nM; in test [5], 3000 nM; in test [6], 1900 nM. For the same compound, in test [1], the inhibition was determined as 99.5%. For the same compound, the outcome in test [3] was inactive.

By inhibition is commonly meant the drop in the measured response relative to a control, in per cent. Low values mean little suppression, high ones strong suppression. As usually defined, the IC50 is the point on the concentration scale where inhibition reaches its midpoint. A low value points to greater potency.
